Two compounds from patent US20260125346A1, “Isoquinolinone Derivatives and 4H-Quinolizinone Derivatives and Pharmaceutical Compositions Thereof for the Treatment of Disease” (BeOne Medicines I GmbH, priority 2023, published 2026) can be followed below.

Assay [1] addresses PI3Kα (p110/p85) kinase (wild type, "WT") (Homo sapiens, UniProt P42336). Description: PI3Kα (p110/p85) kinase ADP-Glo Assay. Particulars: 25 uM ATP. The format is biochemical. The method in brief: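 IC50 values come from a four-parameter logistic fit of ADP-Glo chemiluminescence, reflecting ADP formed. Enzyme, lipid substrate and […] compound were preincubated 30 min at room temperature, then 25 µM ATP was added for a 120 min reaction in 50 mM HEPES pH7.5, 3 mM MgCl2.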

Assay [2] has as its system WT cell line SK-BR-3. Description: Phospho-AKT (Ser473) Inhibition Assay (HTRF), SK-BR-3. The format is cell-based. Particulars: Homo sapiens; SK-BR-3, 1 hour treatment; read-out: p-AKT Inhibition assay (S473) IC50 SK-BR-3. The method in brief: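 SK-BR-3 (PI3Kα WT) cells seeded overnight in MEM with insulin, then treated 1 h with 11-point 1:3 dilutions (10 μM to 0.1 nM, 0.1% DMSO). Lysates read for phospho-AKT Ser473 by HTRF after 4 h antibody incubation at room temperature. IC50 from 4-parameter fit, % inhibition normalized to DMSO (max) and 10 μM GDC0077 (min).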
On the technique in general: In TR-FRET formats the signal depends on donor and acceptor labels being close together.

The subject of assay [3] is PI3Kα H1047R mutated cell line T-47D cells. Description: Cell Proliferation Assay (CellTiter-Glo), T-47D. The format is cell-based. The note with it: for IC50: Homo sapiens, T47D, 72 h, T-47D, 3 days treatment. The method in brief: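 T-47D cells seeded overnight at 3×10^3/well, then exposed 3 days to 9-point 1:3 dilutions, final […] to 1 nM in 0.1% DMSO. CellTiter-Glo luminescence; relative IC50 from percent inhibition versus medium-only and 0.1% DMSO controls, 4-parameter logistic fit.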
On the technique in general: ATP-based viability assays read luminescence as a measure of living cells.

Assay [4] has as its system WT cell line SK-BR-3. Description: Cell Proliferation Assay (CellTiter-Glo), SK-BR-3. The format is cell-based. Particulars: Homo sapiens, 72 h; SK-BR-3, 3 days treatment. The method in brief:
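SK-BR-3 cells treated for 3 days with compound in a 9-point series, final concentrations 10 M to 1 nM in 0.1% DMSO. Viability read by CellTiter-Glo luminescence. Relative IC50 from percent inhibition versus medium-only and DMSO controls, four-parameter logistic fit.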

Chain of PI3Kα (p110/p85) kinase (wild type, "WT") (P42336 whole entry): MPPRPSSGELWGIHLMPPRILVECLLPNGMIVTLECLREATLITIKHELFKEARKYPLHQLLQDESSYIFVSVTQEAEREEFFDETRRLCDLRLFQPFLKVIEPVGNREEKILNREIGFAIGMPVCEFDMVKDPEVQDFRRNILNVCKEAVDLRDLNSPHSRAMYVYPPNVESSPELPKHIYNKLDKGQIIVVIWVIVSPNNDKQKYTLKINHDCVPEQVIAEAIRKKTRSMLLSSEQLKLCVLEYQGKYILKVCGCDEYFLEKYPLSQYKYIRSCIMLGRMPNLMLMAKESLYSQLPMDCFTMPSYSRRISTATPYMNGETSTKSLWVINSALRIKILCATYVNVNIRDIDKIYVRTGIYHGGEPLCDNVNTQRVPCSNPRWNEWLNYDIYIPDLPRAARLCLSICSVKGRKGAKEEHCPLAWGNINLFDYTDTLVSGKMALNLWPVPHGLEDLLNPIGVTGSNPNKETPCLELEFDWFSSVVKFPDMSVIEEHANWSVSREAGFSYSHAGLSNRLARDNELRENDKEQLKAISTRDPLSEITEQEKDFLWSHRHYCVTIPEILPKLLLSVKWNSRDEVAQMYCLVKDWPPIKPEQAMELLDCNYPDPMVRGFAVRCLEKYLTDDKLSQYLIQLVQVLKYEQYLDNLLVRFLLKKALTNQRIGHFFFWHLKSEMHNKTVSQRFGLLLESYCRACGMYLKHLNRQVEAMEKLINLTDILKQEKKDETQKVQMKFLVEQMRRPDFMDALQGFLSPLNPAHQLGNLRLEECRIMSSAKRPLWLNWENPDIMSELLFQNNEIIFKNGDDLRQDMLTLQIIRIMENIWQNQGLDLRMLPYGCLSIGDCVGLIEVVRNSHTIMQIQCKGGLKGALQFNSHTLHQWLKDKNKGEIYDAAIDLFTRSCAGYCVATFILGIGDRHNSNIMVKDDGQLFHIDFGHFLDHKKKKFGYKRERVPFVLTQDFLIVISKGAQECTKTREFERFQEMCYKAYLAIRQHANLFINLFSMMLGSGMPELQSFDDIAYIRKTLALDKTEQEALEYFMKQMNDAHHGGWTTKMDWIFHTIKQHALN
Chain of PI3Kα (p110/p85) kinase (wild type, "WT") (P27986 whole entry partner): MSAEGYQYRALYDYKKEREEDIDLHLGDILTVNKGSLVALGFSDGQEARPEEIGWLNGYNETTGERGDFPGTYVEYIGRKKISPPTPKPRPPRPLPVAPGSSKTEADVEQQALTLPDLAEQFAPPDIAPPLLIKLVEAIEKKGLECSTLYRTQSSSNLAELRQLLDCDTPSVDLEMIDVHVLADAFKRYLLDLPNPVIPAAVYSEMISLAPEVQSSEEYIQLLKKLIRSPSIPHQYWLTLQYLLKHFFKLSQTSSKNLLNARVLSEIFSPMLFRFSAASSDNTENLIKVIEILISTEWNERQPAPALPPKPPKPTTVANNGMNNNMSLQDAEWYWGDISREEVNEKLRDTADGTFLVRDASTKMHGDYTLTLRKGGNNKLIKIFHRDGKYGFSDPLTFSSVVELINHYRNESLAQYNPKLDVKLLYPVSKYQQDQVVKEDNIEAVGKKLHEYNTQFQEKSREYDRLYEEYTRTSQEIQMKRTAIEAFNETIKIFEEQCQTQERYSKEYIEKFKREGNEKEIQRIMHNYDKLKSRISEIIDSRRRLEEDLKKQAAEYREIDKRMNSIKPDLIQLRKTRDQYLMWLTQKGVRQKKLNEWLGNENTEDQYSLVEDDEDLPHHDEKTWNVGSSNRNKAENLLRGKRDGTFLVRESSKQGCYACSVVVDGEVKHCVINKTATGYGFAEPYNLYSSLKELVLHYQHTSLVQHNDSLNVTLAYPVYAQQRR

One may read the IC50 as the concentration that gives 50% inhibition. On to `Cc1cc(C(C)Nc2ccccc2C(=O)O)c2cc(-c3ccc(F)cc3)n(C3CCOCC3)c(=O)c2c1` (stereo not drawn) [Example 96, 2-((1-(3-(4-fluorophenyl)-7-methyl-1-oxo-2-(tetrahydro-2H-pyran-4-yl)-1,2-dihydroisoquinolin-5-yl)ethyl)amino)benzoic acid], for which the IC50 in assay [1] was 72 µM; in the assay on WT cell line SK-BR-3 [2], 9.52 µM; in assay [3], 0.993 µM; in the assay with WT cell line SK-BR-3 [4], > 10 µM. The “Selectivity: SK-BR-3/T-47D (cell proliferation)” value in assay [3] (cell proliferation IC50 ratio) is >10.
For `Cc1cc(C(C)Nc2ccncc2C(=O)O)c2cc(-c3ccc(F)cc3)n(C)c(=O)c2c1` (stereo not drawn) [Example 97, 4-((1-(3-(4-fluorophenyl)-2,7-dimethyl-1-oxo-1,2-dihydroisoquinolin-5-yl)ethyl)amino)nicotinic acid], the IC50 is > 100 µM in assay [1], > 10 µM in the assay with WT cell line SK-BR-3 [2], > 10 µM in assay [3] and > 10 µM in the assay with WT cell line SK-BR-3 [4].
